Residues, ends and D or L forms follow the SMILES beside them.
Tests used:
[1] = Binding affinity to recombinant G-CSFR extracellular domain (unknown origin) by surface plasmon resonance analysis; set-up: species or system Homo sapiens
[2] = Stability of the compound at 20 deg C assessed as change in alpha-helical structure by CD spectra analysis; format: physicochemical
[3] = target: T1, Granulocyte colony-stimulating factor receptor (Homo sapiens) (UniProt Q99062); test: Potency index, ratio of P8-2KA KD to test compound KD for binding affinity to recombinant G-CSFR extracellular domain (unknown origin)
T1 sequence (whole entry): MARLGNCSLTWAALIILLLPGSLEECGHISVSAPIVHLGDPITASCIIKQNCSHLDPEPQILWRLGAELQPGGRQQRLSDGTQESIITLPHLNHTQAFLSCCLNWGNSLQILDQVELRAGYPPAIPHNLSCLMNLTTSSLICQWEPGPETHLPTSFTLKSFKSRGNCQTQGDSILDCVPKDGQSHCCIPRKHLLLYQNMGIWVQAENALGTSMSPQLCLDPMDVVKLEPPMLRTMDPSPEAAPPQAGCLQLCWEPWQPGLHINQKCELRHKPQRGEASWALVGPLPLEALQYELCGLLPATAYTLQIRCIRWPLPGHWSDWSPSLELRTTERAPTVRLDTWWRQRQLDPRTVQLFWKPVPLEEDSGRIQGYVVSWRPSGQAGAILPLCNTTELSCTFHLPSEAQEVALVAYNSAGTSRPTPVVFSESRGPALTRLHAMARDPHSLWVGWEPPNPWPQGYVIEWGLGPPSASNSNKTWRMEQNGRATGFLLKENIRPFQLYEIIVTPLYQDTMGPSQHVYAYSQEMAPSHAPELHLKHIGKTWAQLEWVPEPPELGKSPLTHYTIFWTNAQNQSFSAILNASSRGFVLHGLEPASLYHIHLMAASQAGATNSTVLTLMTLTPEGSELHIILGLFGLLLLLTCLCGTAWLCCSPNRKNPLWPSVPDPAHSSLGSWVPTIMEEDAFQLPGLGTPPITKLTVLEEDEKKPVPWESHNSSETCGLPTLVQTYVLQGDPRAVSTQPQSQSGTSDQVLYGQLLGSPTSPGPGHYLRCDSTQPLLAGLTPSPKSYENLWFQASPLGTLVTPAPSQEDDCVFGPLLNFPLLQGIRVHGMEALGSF

Compound	Kd [1] [nM]	Stability [2]	Ratio [3]
CC[C@H](C)[C@H](NC(=O)[C@H](CCC(=O)O)NC(=O)[C@H](C)NC(=O)[C@H](CCC(=O)O)NC(=O)[C@H](CC(C)C)NC(=O)[C@H](C)NC(=O)[C@H](C)NC(=O)[C@H](CC(C)C)NC(=O)[C@H](CCC(=O)O)NC(=O)[C@H](C)NC(=O)[C@H](C)NC(=O)[C@@H](N)CS)C(=O)N[C@@H](C)C(=O)N[C@@H](C)C(=O)N[C@@H](CC(C)C)C(=O)N[C@@H](CCC(=O)O)C(=O)NCC(=O)NCC(=O)NCC(=O)NCC(=O)NCC(=O)NCC(=O)NCC(=O)N[C@@H](Cc1ccc(O)cc1)C(=O)N[C@@H](CC(C)C)C(=O)N[C@@H](CCC(=O)O)C(=O)N[C@@H](CCSC)C(=O)N[C@@H](CC(C)C)C(=O)N[C@@H](CCCCN)C(=O)N[C@@H](CC(C)C)C(=O)N[C@@H](CCCCN)C(=O)N[C@@H](CC(C)C)C(=O)N[C@@H](C)C(=O)N[C@@H](CCC(=O)O)C(=O)N[C@@H](C)C(=O)N[C@@H](CCCCN)C(=O)N[C@@H](CCCNC(=N)N)C(=O)N[C@@H](Cc1ccc(O)cc1)C(=O)N[C@@H](CS)C(=O)O (H-CAAELAALEAEIAALEGGGGGGGYLEMLKLKLAEAKRYC-OH)	0.24		
CC[C@H](C)[C@H](NC(=O)[C@H](C)NC(=O)[C@H](CC(C)C)NC(=O)[C@H](CCC(=O)O)NC(=O)[C@H](C)NC(=O)[C@H](C)NC(=O)[C@@H](N)CS)C(=O)N[C@@H](CC(C)C)C(=O)N[C@@H](CCC(=O)O)C(=O)N[C@@H](C)C(=O)N[C@@H](CCC(=O)O)C(=O)N[C@H](C(=O)N[C@@H](C)C(=O)N[C@@H](C)C(=O)N[C@@H](CC(C)C)C(=O)N[C@@H](CCC(=O)O)C(=O)NCC(=O)NCC(=O)NCC(=O)NCC(=O)NCC(=O)NCC(=O)NCC(=O)N[C@@H](CCCCN)C(=O)N[C@@H](CC(C)C)C(=O)N[C@@H](CCC(=O)O)C(=O)N[C@@H](CCSC)C(=O)N[C@@H](CC(C)C)C(=O)N[C@@H](CCCCN)C(=O)N[C@@H](CC(C)C)C(=O)N[C@@H](CCCCN)C(=O)N[C@@H](CC(C)C)C(=O)N[C@@H](C)C(=O)N[C@@H](CCC(=O)O)C(=O)N[C@@H](C)C(=O)N[C@@H](CCCCN)C(=O)N[C@@H](CCCNC(=N)N)C(=O)N[C@@H](Cc1ccc(O)cc1)C(=O)N[C@@H](CS)C(=O)O)[C@@H](C)CC (H-CAAELAILEAEIAALEGGGGGGGKLEMLKLKLAEAKRYC-OH)	0.89		
CC[C@H](C)[C@H](NC(=O)[C@H](C)NC(=O)[C@H](CC(C)C)NC(=O)[C@H](CCC(=O)O)NC(=O)[C@H](C)NC(=O)[C@H](C)NC(=O)[C@@H](N)CS)C(=O)N[C@@H](CC(C)C)C(=O)N[C@@H](CCC(=O)O)C(=O)N[C@@H](C)C(=O)N[C@@H](CCC(=O)O)C(=O)N[C@H](C(=O)N[C@@H](C)C(=O)N[C@@H](C)C(=O)N[C@@H](CC(C)C)C(=O)N[C@@H](CCC(=O)O)C(=O)NCC(=O)NCC(=O)NCC(=O)NCC(=O)NCC(=O)NCC(=O)NCC(=O)N[C@@H](Cc1ccc(O)cc1)C(=O)N[C@@H](CC(C)C)C(=O)N[C@@H](C)C(=O)N[C@@H](CCSC)C(=O)N[C@@H](CC(C)C)C(=O)N[C@@H](CCCCN)C(=O)N[C@@H](CC(C)C)C(=O)N[C@@H](CCCCN)C(=O)N[C@@H](CC(C)C)C(=O)N[C@@H](C)C(=O)N[C@@H](CCC(=O)O)C(=O)N[C@@H](C)C(=O)N[C@@H](CCCCN)C(=O)N[C@@H](CCCNC(=N)N)C(=O)N[C@@H](Cc1ccc(O)cc1)C(=O)N[C@@H](CS)C(=O)O)[C@@H](C)CC (H-CAAELAILEAEIAALEGGGGGGGYLAMLKLKLAEAKRYC-OH)	0.16		
CC[C@H](C)[C@H](NC(=O)[C@H](C)NC(=O)[C@H](CC(C)C)NC(=O)[C@H](CCC(=O)O)NC(=O)[C@H](C)NC(=O)[C@H](C)NC(=O)[C@@H](N)CS)C(=O)N[C@@H](CC(C)C)C(=O)N[C@@H](CCC(=O)O)C(=O)N[C@@H](C)C(=O)N[C@@H](CCC(=O)O)C(=O)N[C@H](C(=O)N[C@@H](C)C(=O)N[C@@H](C)C(=O)N[C@@H](CC(C)C)C(=O)N[C@@H](CCC(=O)O)C(=O)NCC(=O)NCC(=O)NCC(=O)NCC(=O)NCC(=O)NCC(=O)NCC(=O)N[C@@H](Cc1ccc(O)cc1)C(=O)N[C@@H](CC(C)C)C(=O)N[C@@H](CCC(=O)O)C(=O)N[C@@H](CCSC)C(=O)N[C@@H](CC(C)C)C(=O)N[C@@H](CCCCN)C(=O)N[C@@H](CC(C)C)C(=O)N[C@@H](CCCCN)C(=O)N[C@@H](CC(C)C)C(=O)N[C@@H](C)C(=O)N[C@@H](CCC(=O)O)C(=O)N[C@@H](C)C(=O)N[C@@H](CCCCN)C(=O)N[C@@H](CCCNC(=N)N)C(=O)N[C@@H](Cc1ccc(O)cc1)C(=O)N[C@@H](CS)C(=O)O)[C@@H](C)CC (H-CAAELAILEAEIAALEGGGGGGGYLEMLKLKLAEAKRYC-OH)	0.18		
CC[C@H](C)[C@H](NC(=O)[C@H](C)NC(=O)[C@H](CC(C)C)NC(=O)[C@H](CCC(=O)O)NC(=O)[C@H](C)NC(=O)[C@H](C)NC(=O)[C@@H](N)CS)C(=O)N[C@@H](CC(C)C)C(=O)N[C@@H](CCC(=O)O)C(=O)N[C@@H](C)C(=O)N[C@@H](CCC(=O)O)C(=O)N[C@H](C(=O)N[C@@H](C)C(=O)N[C@@H](C)C(=O)N[C@@H](CC(C)C)C(=O)N[C@@H](CCC(=O)O)C(=O)NCC(=O)NCC(=O)NCC(=O)NCC(=O)NCC(=O)NCC(=O)NCC(=O)N[C@@H](Cc1ccc(O)cc1)C(=O)N[C@@H](CC(C)C)C(=O)N[C@@H](CCC(=O)O)C(=O)N[C@@H](CCSC)C(=O)N[C@@H](CC(C)C)C(=O)N[C@@H](CCCCN)C(=O)N[C@@H](CC(C)C)C(=O)N[C@@H](CCCCN)C(=O)N[C@@H](CC(C)C)C(=O)N[C@@H](C)C(=O)N[C@@H](CCC(=O)O)C(=O)N[C@@H](CC(C)C)C(=O)N[C@@H](CCCCN)C(=O)N[C@@H](CCCNC(=N)N)C(=O)N[C@@H](Cc1ccc(O)cc1)C(=O)N[C@@H](CS)C(=O)O)[C@@H](C)CC (H-CAAELAILEAEIAALEGGGGGGGYLEMLKLKLAELKRYC-OH)	2.8		
CC[C@H](C)[C@H](NC(=O)[C@H](C)NC(=O)[C@H](CC(C)C)NC(=O)[C@H](CCC(=O)O)NC(=O)[C@H](C)NC(=O)[C@H](C)NC(=O)[C@@H](N)CS)C(=O)N[C@@H](CC(C)C)C(=O)N[C@@H](CCC(=O)O)C(=O)N[C@@H](C)C(=O)N[C@@H](CCC(=O)O)C(=O)N[C@@H](CC(C)C)C(=O)N[C@@H](C)C(=O)N[C@@H](C)C(=O)N[C@@H](CC(C)C)C(=O)N[C@@H](CCC(=O)O)C(=O)NCC(=O)NCC(=O)NCC(=O)NCC(=O)NCC(=O)NCC(=O)NCC(=O)N[C@@H](Cc1ccc(O)cc1)C(=O)N[C@@H](CC(C)C)C(=O)N[C@@H](CCC(=O)O)C(=O)N[C@@H](CCSC)C(=O)N[C@@H](CC(C)C)C(=O)N[C@@H](CCCCN)C(=O)N[C@@H](CC(C)C)C(=O)N[C@@H](CCCCN)C(=O)N[C@@H](CC(C)C)C(=O)N[C@@H](C)C(=O)N[C@@H](CCC(=O)O)C(=O)N[C@@H](C)C(=O)N[C@@H](CCCCN)C(=O)N[C@@H](CCCNC(=N)N)C(=O)N[C@@H](Cc1ccc(O)cc1)C(=O)N[C@@H](CS)C(=O)O (H-CAAELAILEAELAALEGGGGGGGYLEMLKLKLAEAKRYC-OH)	0.49		
H-AELAALEAELAALEGGGGGGGKLAMLKLKLAELKRY-OH	380	Stable	
H-AELAILEAEIAALEGGGGGGGYLEMLKLKLAEAKRY-OH	16	Stable	24
